Data set [1] is described as follows: Myelosuppression on administration of Tinostamustine at the indicated dosage ranges. The following applies: below 40 mg/m^2 body surface area. It is filed as in vivo. Here is the method: More particularly, the dosage ranges of Tinostamustine described herein may preferably avoid Tinostamustine causing cytotoxicity to immune cells. For comparison, the doses at which Tinostamustine are administered in accordance with the present invention are below those normally used to achieve an anti-cancer neoplastic effect (e.g. via inducing cytotoxicity in tumour cells) with Tinostamustine as a monotherapy (typically […]).

Data set [2] is described as follows: MC38 model: tolerability and body weight. The format is in vivo, female C57BL/6 mice. Here is the method: After tumour cell inoculation, the animals were checked daily for morbidity and mortality. During routine monitoring, the animals were checked for treatment effects on tumour growth, behaviour such as mobility, food and water consumption, body weight gain/loss (Body weights) were measured twice a week after randomization), eye/hair matting and any other abnormalities. Mortality and observed clinical signs were recorded for individual animals in detail.
Tumour volumes were measured twice a week after randomization in two dimensions using a caliper, and the volume was expressed in mm3 using the formula: “V=(L×W×W)/2, where V was tumour volume, L was tumour length (the longest tumor dimension) and W was tumour width (the longest tumour dimension perpendicular to L). Dosing as well as tumour and body weight measurements were conducted in a Laminar Flow Cabinet. The body weights and tumour volumes were measured by using StudyDirector™ software (version 3.1.399.19).

Data set [3] relates to MC38 subcutaneous murine colorectal syngeneic model. The experiment in a line: MC38 subcutaneous murine colorectal syngeneic model: tumour burden and survival. It is filed as in vivo, female C57BL/6 mice. The protocol:
Specifically, the effects of the combined therapy Tinostamustine and an […] antibody in the treatment of the MC38 subcutaneous murine colorectal syngeneic model in female C57BL/6 mice following 3 dose cycles was assessed. MC38 is a commonly used murine model for colorectal carcinoma.
Six groups of mice were randomly allocated a group, hereafter referred to as Groups 1 to 6, as in Table 3.
Tinostamustine was administered intravenously, specifically by slow intravenous injection at a rate of ˜60 s per mouse. Two groups of mice were administered tinostamustine at a dose of 5 mg/kg once weekly, either as a monotherapy (Group 3) or as a combination therapy (Group 5). […]
The MC38 cells were maintained in vitro with DMEM medium supplemented with 10% fetal bovine serum at 37° C. in an atmosphere of 5% CO2 in air. The cells in exponential growth phase were harvested and quantitated by cell counter before tumour inoculation. […]
Tumour volumes were measured twice a week after randomization in two dimensions using a caliper, and the volume was expressed in mm3 using the formula: “V=(L×W×W)/2, where V was tumour volume, L was tumour length (the longest tumor dimension) and W was tumour width (the longest tumour dimension perpendicular to L). […] The body weights and tumour volumes were measured by using StudyDirector™ software (version 3.1.399.19). […]

Data set [4] in a line: Phase 1B clinical trial of Tinostamustine in combination with Nivolumab: safety, tolerability, recommended dose. The format is in vivo, human. The source says:
The clinical study relates to an open-label, single-centre, phase-1B clinical trial to determine the safety, tolerability, recommended dose and anti-cancer efficacy of Tinostamustine in combination with the anti-PD-1 monoclonal antibody (mAb), Nivolumab in patients with advanced melanoma receiving standard-of-care treatment. Tinostamustine is a compound having the following structural formula: […]
A total of 17 patients with advanced melanoma were recruited to a Phase IB study to characterise the safety, tolerability, recommended dose and preliminary efficacy in the treatment of cancer of Tinostamustine in combination with the immune checkpoint inhibitor, Nivolumab.
Tinostamustine was administered intravenously. Four patients were administered tinostamustine at a dose of 15 mg/m^2 (referred to as dose level 1—DL1) for each cycle. Thirteen patients were administered with Tinostamustine at a dose of 30 mg/m^2 (referred to as dose level 2—DL2) for each cycle.
The primary endpoint of the study was dose limiting toxicity (DLT) observed during the first 6 weeks of trial treatment. […]

Data set [5] deals with renal cell carcinoma (RCC). To be noted: cited from earlier work.
The conditions of data set [6]: patients with advanced melanoma; cited from earlier work.
The subject of data set [7] is metastatic melanoma. The following applies: cited from earlier work.
The subject of data set [8] is advanced melanoma. To be noted: cited from earlier work.
Data set [9] has as its system advanced melanoma. To be noted: in vivo; cited from earlier work.

“Also recorded” adds a separate entry of the source.

Take `Cn1c(CCCCCCC(=O)NO)nc2cc(N(CCCl)CCCl)ccc21` [Tinostamustine]: the myelosuppression entry in data set [1] is “no myelosuppression”. The tolerability entry in data set [2] (3 weeks of treatment) is recorded as “well-tolerated”. Also, in data set [2] (mean body weight during treatment), the body weight result was “no loss of body weight; also recorded: weight gain”. For the same compound, the “tumour burden / anti-tumour effect” value in [3] (dose group not specified) is “has anti-tumour effect”. In [3] (vs vehicle control), the survival of mice result is “significantly prolonged the survival; also recorded: increases survival”. In addition, the safety concerns result in data set [4] (Tinostamustine doses between 10 mg/m^2 and 30 mg/m^2 body surface area) is “without any significant safety concerns”. Besides, in data set [4] (in combination with Nivolumab 3 mg/kg), the recommended dose is reported as 30 mg/m^2.
Regarding “Ipilimumab: anti-CTLA-4 monoclonal antibody”, the figures for the response rate result in [5] and in data set [7] were “minimal activity” and 15-20%, respectively. In addition, in data set [6], the high-grade adverse events is recorded as 28 % of patients.
With Nivolumab, the response rate in data set [5] is reported as about 25%. Besides, in data set [8] (first-line), the objective response rate is 40.0% and the progression-free survival is listed as 5.1 months. Moreover, the “overall survival improved by” value in [8] (versus dacarbazine, first-line) is on record as 58%. In data set [8] (versus dacarbazine, p<0.001), the “overall survival HR” value is 0.42 and the “progression-free survival HR” value is 0.43. Further, the “progression-free survival improved by” value in [8] (versus dacarbazine) was 57%. Also, in data set [9], the median overall survival result is listed as “not reached”. Further, in [6], the high-grade adverse events is on record as 23 % of patients. Also, the response rate in data set [7] is listed as 43%.

Source of the values: patent US20240366569A1, “COMBINATIONS FOR TREATING CANCER” (Purdue Pharmaceutical Products L.P., priority 2023, published 2024).
